Here are results for twelve compounds from ChEMBL document CHEMBL5230104, “Systemic review on B-RafV600E mutation as potential therapeutic target for the treatment of cancer” (Eur J Med Chem, 2020).

The structures appear in SMILES notation.

The subject of assay [1] is A-375. As to the kind of experiment: Antiproliferative activity against human A-375 cells assessed as inhibition of cell viability. It counts as functional, cell-based.
The target in assay [2] is T1, Serine/threonine-protein kinase B-raf (Homo sapiens, UniProt P15056). As to the kind of experiment: Inhibition of wild type B-Raf (unknown origin).
The subject of assay [3] is SW480. As to the kind of experiment: Antiproliferative activity against human SW480 cells. It counts as functional, cell-based.
The test system of assay [4] is HepG2. As to the kind of experiment: Antiproliferative activity against human HepG2 cells. It counts as functional, cell-based.
For assay [5], the system named is MDA-MB-453. In words: Antiproliferative activity against human MDA-MB-453 cells. It counts as functional, cell-based.
The target of assay [6] is T2, Serine/threonine-protein kinase B-raf (Homo sapiens, UniProt P15056, V600E). As to the kind of experiment: Inhibition of B-Raf V600E mutant (unknown origin).
Target sequence in this assay (P15056 whole entry V600E): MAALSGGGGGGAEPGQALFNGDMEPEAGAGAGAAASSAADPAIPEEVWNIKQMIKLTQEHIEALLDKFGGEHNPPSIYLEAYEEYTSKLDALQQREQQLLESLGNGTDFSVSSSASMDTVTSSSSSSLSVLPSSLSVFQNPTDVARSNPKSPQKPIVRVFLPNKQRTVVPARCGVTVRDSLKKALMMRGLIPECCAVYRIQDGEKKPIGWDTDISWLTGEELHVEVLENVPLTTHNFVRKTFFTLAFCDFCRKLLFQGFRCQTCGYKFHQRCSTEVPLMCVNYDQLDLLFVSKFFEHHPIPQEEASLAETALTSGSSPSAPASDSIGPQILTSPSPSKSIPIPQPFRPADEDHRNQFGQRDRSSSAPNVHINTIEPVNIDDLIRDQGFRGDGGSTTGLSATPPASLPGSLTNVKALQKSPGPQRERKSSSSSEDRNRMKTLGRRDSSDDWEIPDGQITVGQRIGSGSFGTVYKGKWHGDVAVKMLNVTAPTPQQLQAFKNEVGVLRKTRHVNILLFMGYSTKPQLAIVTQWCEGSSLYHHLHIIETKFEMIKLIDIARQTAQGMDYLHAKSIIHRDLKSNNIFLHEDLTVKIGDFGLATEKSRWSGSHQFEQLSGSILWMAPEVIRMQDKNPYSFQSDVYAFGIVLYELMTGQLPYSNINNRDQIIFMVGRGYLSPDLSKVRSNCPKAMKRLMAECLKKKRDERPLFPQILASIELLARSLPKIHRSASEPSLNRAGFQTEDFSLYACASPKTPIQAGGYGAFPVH
Assay [7] has as its system A-375. In words: Antiproliferative activity against human A-375 cells incubated for 24 hrs by MTT assay. It counts as functional, cell-based. The note with it: A-375, 24 h.
Assay [8] is described as follows: Antiproliferative activity against human WM1361 cells incubated for 24 hrs by MTT assay. It counts as functional, cell-based. The conditions noted are these: WM1361, 24 h.
The nature of assay [9]: Inhibition of full length GST tagged mouse B-Raf V600E mutant preincubated for 1 hr and measured after 25 mins in presence of ATP.
In assay [10] the target is Serine/threonine-protein kinase B-raf (Mus musculus, UniProt P28028). As to the kind of experiment: Inhibition of full length GST tagged mouse wild type B-Raf preincubated for 1 hr and measured after 25 mins in presence of ATP.
Assay [11] concerns A-375. As to the kind of experiment: Antiproliferative activity against human A-375 cells assessed as cell growth inhibition. It counts as functional, cell-based.
A short description of assay [12]: Antiproliferative activity against human WM1361 cells assessed as cell growth inhibition. It counts as functional, cell-based.
The subject of assay [13] is PC-3. In words: Antiproliferative activity against human PC-3 cells assessed as reduction in cell viability. It counts as functional, cell-based.
In assay [14] the test system is T47D. As to the kind of experiment: Antiproliferative activity against human T47D cells assessed as reduction in cell viability. It counts as functional, cell-based.
The test system of assay [15] is K562. As to the kind of experiment: Antiproliferative activity against human K562 cells assessed as reduction in cell viability. It counts as functional, cell-based.
The subject of assay [16] is HT-29. As to the kind of experiment: Antiproliferative activity against human HT-29 cells assessed as reduction in cell viability. It counts as functional, cell-based.
Assay [17] concerns UO-31. As to the kind of experiment: Antiproliferative activity against human UO-31 cells assessed as reduction in cell viability. It counts as functional, cell-based.
Assay [18] concerns NCI-H460. In words: Antiproliferative activity against human NCI-H460 cells assessed as reduction in cell viability. It counts as functional, cell-based.
The test system of assay [19] is SK-MEL-5. In words: Antiproliferative activity against human SK-MEL-5 cells assessed as reduction in cell viability. It counts as functional, cell-based.
Assay [20] relates to U-251. As to the kind of experiment: Antiproliferative activity against human U-251 cells assessed as reduction in cell viability. It counts as functional, cell-based.
The subject of assay [21] is SK-MEL-28. As to the kind of experiment: Antiproliferative activity against human SK-MEL-28 cells assessed as reduction in cell viability. It counts as functional, cell-based.
In assay [22] the target is T1, Serine/threonine-protein kinase B-raf. In words: Inhibition of wild type B-Raf (unknown origin) by radiometric protein kinase-reaction biology assay.
The subject of assay [23] is A-375. As to the kind of experiment: Antiproliferative activity against human A-375 cells assessed as reduction in cell viability. It counts as functional, cell-based.
Assay [24] deals with IGROV-1. In words: Antiproliferative activity against human IGROV-1 cells assessed as reduction in cell viability. It counts as functional, cell-based.
Assay [25] concerns the target T2, Serine/threonine-protein kinase B-raf. In words: Inhibition of B-Raf V600E mutant (unknown origin) by radiometric protein kinase-reaction biology assay.
Target sequence in this assay (P15056 2-766 V600E limits assumed): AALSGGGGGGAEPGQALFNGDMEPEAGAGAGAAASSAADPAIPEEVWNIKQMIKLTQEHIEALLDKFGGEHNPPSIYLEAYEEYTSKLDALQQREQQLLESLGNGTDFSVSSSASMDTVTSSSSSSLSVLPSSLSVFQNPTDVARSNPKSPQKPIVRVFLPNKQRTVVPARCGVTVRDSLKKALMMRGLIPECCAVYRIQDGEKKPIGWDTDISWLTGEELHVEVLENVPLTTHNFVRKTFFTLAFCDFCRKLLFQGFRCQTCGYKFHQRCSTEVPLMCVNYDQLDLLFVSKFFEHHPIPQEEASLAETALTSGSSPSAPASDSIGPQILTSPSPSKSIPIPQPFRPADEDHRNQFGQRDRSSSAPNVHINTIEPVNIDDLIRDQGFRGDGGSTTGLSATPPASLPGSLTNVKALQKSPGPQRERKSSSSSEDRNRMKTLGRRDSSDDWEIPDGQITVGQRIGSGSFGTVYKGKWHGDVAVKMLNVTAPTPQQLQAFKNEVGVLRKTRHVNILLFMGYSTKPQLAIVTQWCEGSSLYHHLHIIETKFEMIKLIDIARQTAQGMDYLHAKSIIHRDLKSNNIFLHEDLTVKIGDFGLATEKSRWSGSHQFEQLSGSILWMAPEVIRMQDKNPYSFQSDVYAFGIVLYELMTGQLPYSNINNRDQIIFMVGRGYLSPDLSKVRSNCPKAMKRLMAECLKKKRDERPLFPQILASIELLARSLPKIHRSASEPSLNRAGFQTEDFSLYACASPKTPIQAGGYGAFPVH
The test system of assay [26] is HT-29. In words: Antiproliferative activity against human HT-29 cells assessed as inhibition of cell growth incubated for 72 hrs by MTT assay. It counts as functional, cell-based. The note with it: HT-29, 72 h.
For assay [27], the system named is A-375. As to the kind of experiment: Antiproliferative activity against human A-375 cells assessed as inhibition of cell growth incubated for 72 hrs by MTT assay. The conditions noted are these: A-375, 72 h. It counts as functional, cell-based. A general note: Formazan colour is commonly taken as a measure of viable cells.
Assay [28] deals with COLO 205. In words: Antiproliferative activity against human COLO 205 cells assessed as inhibition of cell growth incubated for 72 hrs by MTT assay. It counts as functional, cell-based. The conditions noted are these: COLO 205, 72 h.
Assay [29] addresses T1, Serine/threonine-protein kinase B-raf. In words: Inhibition of wild type B-Raf (unknown origin) by ELISA based assay.
Assay [30] deals with T2, Serine/threonine-protein kinase B-raf. In words: Inhibition of B-Raf V600E mutant (unknown origin) by ELISA based assay. (In an ELISA, binding on a coated surface is turned into a signal by an enzyme label.)
Target sequence in this assay (P15056 2-766 V600E limits assumed): as above
Assay [31] has as its target T1, Serine/threonine-protein kinase B-raf. In words: Inhibition of wild type B-Raf (unknown origin) by hotspot kinase assay.
The subject of assay [32] is SK-MEL-28. In words: Antiproliferative activity against human SK-MEL-28 cells. It counts as functional, cell-based.
The target in assay [33] is T2, Serine/threonine-protein kinase B-raf. In words: Inhibition of B-Raf V600E mutant (unknown origin) by hotspot kinase assay.
Target sequence in this assay (P15056 2-766 V600E limits assumed): as above
The test system of assay [34] is A-375. As to the kind of experiment: Antiproliferative activity against human A-375 cells. It counts as functional, cell-based.
For assay [35], the system named is HepG2. As to the kind of experiment: Antiproliferative activity against human HepG2 cells assessed as inhibition of cell growth. It counts as functional, cell-based.
For assay [36], the system named is COLO 205. In words: Antiproliferative activity against human COLO 205 cells assessed as inhibition of cell growth. It counts as functional, cell-based.
For assay [37], the system named is A-375. In words: Antiproliferative activity against human A-375 cells assessed as inhibition of cell growth. It counts as functional, cell-based.
Assay [38] concerns SK-MEL-2. In words: Antiproliferative activity against human SK-MEL-2 cells assessed as inhibition of cell growth. It counts as functional, cell-based.
Assay [39] is described as follows: Inhibition of full length GST tagged mouse B-Raf V600E mutant incubated for 1 hr.
For assay [40], the system named is A549. In words: Antiproliferative activity against human A549 cells incubated for 48 hrs by MTT assay. It counts as functional, cell-based. The conditions noted are these: A549, 48 h.
In assay [41] the test system is PC-3. As to the kind of experiment: Antiproliferative activity against human PC-3 cells incubated for 48 hrs by MTT assay. The conditions noted are these: PC-3, 48 h. It counts as functional, cell-based.
Assay [42] relates to HT-29. In words: Antiproliferative activity against human HT-29 cells incubated for 48 hrs by MTT assay. It counts as functional, cell-based. The note with it: HT-29, 48 h.
Assay [43] concerns A-375. In words: Antiproliferative activity against human A-375 cells incubated for 48 hrs by MTT assay. It counts as functional, cell-based. The conditions noted are these: A-375, 48 h.
The subject of assay [44] is SK-MEL-2. As to the kind of experiment: Anticancer activity against human SK-MEL-2 cells. It counts as functional, cell-based.
The test system of assay [45] is K562. In words: Anticancer activity against human K562 cells. It counts as functional, cell-based.
The test system of assay [46] is MV4-11. In words: Anticancer activity against human MV4-11 cells. It counts as functional, cell-based.
The subject of assay [47] is HCT-116. As to the kind of experiment: Anticancer activity against human HCT-116 cells. It counts as functional, cell-based.
Assay [48] deals with A549. As to the kind of experiment: Anticancer activity against human A549 cells. It counts as functional, cell-based.

T1 sequence (P15056 whole entry): as the sequence (P15056 whole entry V600E) above, with E600V counted along it
Sequence of Serine/threonine-protein kinase B-raf (Mus musculus, UniProt P28028) (P28028 whole entry): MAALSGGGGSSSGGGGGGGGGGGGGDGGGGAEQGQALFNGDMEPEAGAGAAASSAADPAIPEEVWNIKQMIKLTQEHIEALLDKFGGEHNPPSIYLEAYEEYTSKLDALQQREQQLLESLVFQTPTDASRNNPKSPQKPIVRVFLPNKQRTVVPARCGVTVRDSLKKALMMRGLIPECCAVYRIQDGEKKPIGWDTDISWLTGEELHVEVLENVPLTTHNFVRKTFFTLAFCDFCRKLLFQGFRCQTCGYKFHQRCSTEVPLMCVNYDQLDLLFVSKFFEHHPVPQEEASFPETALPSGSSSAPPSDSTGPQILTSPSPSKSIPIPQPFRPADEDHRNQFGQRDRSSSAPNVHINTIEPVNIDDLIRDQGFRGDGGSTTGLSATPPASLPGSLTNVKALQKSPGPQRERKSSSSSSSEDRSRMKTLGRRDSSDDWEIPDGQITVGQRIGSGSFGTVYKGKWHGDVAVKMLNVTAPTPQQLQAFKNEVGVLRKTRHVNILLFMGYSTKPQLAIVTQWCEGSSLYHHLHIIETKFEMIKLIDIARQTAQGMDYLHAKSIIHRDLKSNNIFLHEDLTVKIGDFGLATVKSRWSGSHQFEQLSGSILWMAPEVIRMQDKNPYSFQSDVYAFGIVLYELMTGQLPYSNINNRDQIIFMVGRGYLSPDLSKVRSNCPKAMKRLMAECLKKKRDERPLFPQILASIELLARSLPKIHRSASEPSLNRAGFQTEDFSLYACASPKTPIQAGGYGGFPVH

The IC50 is the point on the concentration scale where inhibition reaches its midpoint. On to `CC(C)(C)c1cc(NC(=O)Nc2ccc(Oc3ccnc4[nH]c(=O)cnc34)cc2F)n(-c2ccccc2)n1`, for which the IC50 worked out at 12000 nM in [1] and 100 nM in assay [2].
Take `CNC(=O)c1cc(Cn2ccc3cc(NC(=O)Nc4ccc(Cl)c(C(F)(F)F)c4)ccc32)ccn1`: the IC50 in assay [3] came to 13500 nM; in [4], 6630 nM; in assay [5], 21900 nM; in assay [6], 510 nM.
For `Cc1ccc(-n2cc(NC(=O)c3c[nH]c4ccccc34)cn2)cc1`, the IC50 in assay [7] worked out at 930 nM; in assay [8], 10000 nM; in [9], 100 nM; in assay [10], 920 nM.
Take `COc1ccc(-n2cc(NC(=O)c3cccc(NC(=O)Nc4ccc(Cl)c(C(F)(F)F)c4)c3)cn2)cc1`: the IC50 in [11] was 390 nM; in assay [12], 7120 nM; in assay [6] it was 35 nM; in assay [2], 220 nM.
For `O=S(=O)(NCCCNc1nccc(-c2c(-c3cccc(F)c3)nc3occn23)n1)c1ccccc1`, the IC50 in assay [13] worked out at 38900 nM; in assay [14], 53600 nM; in [15], 56300 nM; in assay [16], 51800 nM; in assay [17], 39800 nM; in [18], 18500 nM. Moreover, the IC50 in [19] was found to be 28400 nM; in [20], 7380 nM; in assay [21], 11200 nM; in assay [22] it was 172 nM; in [23] it was 9810 nM; in [24], 40200 nM. Further, in [25], the IC50 came out at 92 nM.
`CCC[S+]([O-])Nc1ccc(F)c(Cc2c[nH]c3nc(N)n(C)c(=O)c23)c1F` (stereo unspecified): the IC50 stood at 550 nM in assay [26]; 800 nM in assay [27]; 1640 nM in assay [28]; 440 nM in assay [29]; 50 nM in assay [30].
Consider `COc1cc(-c2nn(-c3ccc(NC(=O)CN4CCOCC4)cc3)cc2-c2ccncc2)ccc1Cl`, for which the IC50 in assay [31] was 536 nM; in assay [32], 2210 nM; in [33], 2.98 nM; in [34] it was 1820 nM.
Regarding `Cc1ccc(C(=O)Nc2ccc(Cl)c(C(F)(F)F)c2)cc1NC(=O)C1(c2ccnc(NCCN3CCN(C)CC3)n2)CC1`, the IC50 in [35] is 2460 nM; in [36], 1920 nM; in assay [6], 12.6 nM; in assay [37], 1070 nM; in assay [38], 580 nM; in assay [2], 19.7 nM.
For the compound `Cc1nn(-c2ccccc2)c(Cl)c1Nc1ccc(C(F)(F)F)cc1`, the IC50 in assay [34] is 810 nM; in [6] it was 66 nM.
In the case of `Cc1ccc(NC(=S)NNC(=O)CNc2nc(-c3ccccc3)c(-c3ccccc3)s2)cc1`, in assay [39], the half-maximal inhibitory concentration (IC50) was found to be 1300 nM.
Turning to `Cn1ncc2c(Oc3ccc(NC(=O)Nc4ccc(Cl)c(C(F)(F)F)c4)cc3)ncnc21`, the IC50 in assay [40] turned out to be 12500 nM; in assay [41], 23400 nM; in [42], 14700 nM; in assay [43], 12200 nM.
Consider `O=C(Nc1ccc(Oc2ccc(C(=O)c3ncc[nH]3)cc2)cc1)Nc1ccc(Cl)c(C(F)(F)F)c1`, for which the IC50 in assay [44] came out at 5400 nM; in assay [45], 9130 nM; in assay [46], 380 nM; in assay [47], 10900 nM; in assay [48] it was 9110 nM; in assay [6], 86 nM. Besides, the IC50 in [2] stood at 134 nM.
